Assay results: ChEMBL document CHEMBL5113480, “Discovery of novel biphenyl-substituted pyridone derivatives as potent non-nucleoside reverse transcriptase inhibitors with promising oral bioavailability” (Eur J Med Chem, 2022)

Legend:
[1] = test system: Human immunodeficiency virus 1; test: Antiviral activity against HIV-1 K103N mutant infected in human MT4 cells assessed as reduction in viral replication by MTT assay; format: functional, organism-based; conditions: Human immunodeficiency virus 1, K103N mutant
[2] = test system: Human immunodeficiency virus 1; test: Antiviral activity against HIV-1 L100I mutant infected in human MT4 cells assessed as reduction in viral replication by MTT assay; format: functional, organism-based; conditions: Human immunodeficiency virus 1, L100I mutant
[3] = test system: Human immunodeficiency virus 1; test: Antiviral activity against HIV-1 Y181C mutant infected in human MT4 cells assessed as reduction in viral replication by MTT assay; format: functional, organism-based; conditions: Human immunodeficiency virus 1, Y181C mutant
[4] = Cytotoxicity against human MT4 cells assessed as reduction on cell growth by MTT assay; format: toxicity, cell-based
[5] = test system: Human immunodeficiency virus 1; test: Antiviral activity against HIV-1 F227L-V106A mutant infected in human MT4 cells assessed as reduction in viral replication by MTT assay; format: functional, organism-based; conditions: Human immunodeficiency virus 1, F227L-V106A mutant
[6] = test system: Human immunodeficiency virus 1; test: Antiviral activity against HIV-1 E138K mutant infected in human MT4 cells assessed as reduction in viral replication by MTT assay; format: functional, organism-based; conditions: Human immunodeficiency virus 1, E138K mutant
[7] = biological target: Voltage-gated inwardly rectifying potassium channel KCNH2 (Homo sapiens, UniProt Q12809); test: Inhibition of human ERG potassium channel expressed in CHO cells by automated patch clamp electrophysiological assay; format: toxicity, cell-based
[8] = test system: Human immunodeficiency virus 1; test: Antiviral activity against HIV-1 K103N-Y181C mutant infected in human MT4 cells assessed as reduction in viral replication by MTT assay; format: functional, organism-based; conditions: Human immunodeficiency virus 1, K103N-Y181C mutant
[9] = biological target: Human immunodeficiency virus type 1 reverse transcriptase (Human immunodeficiency virus 1, UniProt Q72547); test: Inhibition of wild type HIV-1 Reverse transcriptase
[10] = Selectivity index, ratio of CC50 for cytotoxicity against human MT4 cells to EC50 of Anti-HIV activity against HIV-1 IIIB infected in human MT4 cells; format: toxicity, cell-based; conditions: read-out: Ratio CC50/EC50
[11] = test system: Human immunodeficiency virus 1; test: Antiviral activity against HIV-1 Y188L mutant infected in human MT4 cells assessed as reduction in viral replication by MTT assay; format: functional, organism-based; conditions: Human immunodeficiency virus 1, Y188L mutant
[12] = test system: Human immunodeficiency virus 1; test: Antiviral activity against HIV-1 ROD infected in human MT4 cells assessed as reduction in viral replication by MTT assay; format: functional, organism-based
Cytochrome P450 2D6 = Cytochrome P450 2D6 (Homo sapiens, UniProt P10635); test: Inhibition of CYP2D6 (unknown origin); format: ADME
[13] = test system: Human immunodeficiency virus 1; test: Antiviral activity against HIV-1 IIIB infected in human MT4 cells assessed as reduction in viral replication by MTT assay; format: functional, organism-based; conditions: Human immunodeficiency virus 1, IIIB

Voltage-gated inwardly rectifying potassium channel KCNH2, sequence (Q12809 whole entry): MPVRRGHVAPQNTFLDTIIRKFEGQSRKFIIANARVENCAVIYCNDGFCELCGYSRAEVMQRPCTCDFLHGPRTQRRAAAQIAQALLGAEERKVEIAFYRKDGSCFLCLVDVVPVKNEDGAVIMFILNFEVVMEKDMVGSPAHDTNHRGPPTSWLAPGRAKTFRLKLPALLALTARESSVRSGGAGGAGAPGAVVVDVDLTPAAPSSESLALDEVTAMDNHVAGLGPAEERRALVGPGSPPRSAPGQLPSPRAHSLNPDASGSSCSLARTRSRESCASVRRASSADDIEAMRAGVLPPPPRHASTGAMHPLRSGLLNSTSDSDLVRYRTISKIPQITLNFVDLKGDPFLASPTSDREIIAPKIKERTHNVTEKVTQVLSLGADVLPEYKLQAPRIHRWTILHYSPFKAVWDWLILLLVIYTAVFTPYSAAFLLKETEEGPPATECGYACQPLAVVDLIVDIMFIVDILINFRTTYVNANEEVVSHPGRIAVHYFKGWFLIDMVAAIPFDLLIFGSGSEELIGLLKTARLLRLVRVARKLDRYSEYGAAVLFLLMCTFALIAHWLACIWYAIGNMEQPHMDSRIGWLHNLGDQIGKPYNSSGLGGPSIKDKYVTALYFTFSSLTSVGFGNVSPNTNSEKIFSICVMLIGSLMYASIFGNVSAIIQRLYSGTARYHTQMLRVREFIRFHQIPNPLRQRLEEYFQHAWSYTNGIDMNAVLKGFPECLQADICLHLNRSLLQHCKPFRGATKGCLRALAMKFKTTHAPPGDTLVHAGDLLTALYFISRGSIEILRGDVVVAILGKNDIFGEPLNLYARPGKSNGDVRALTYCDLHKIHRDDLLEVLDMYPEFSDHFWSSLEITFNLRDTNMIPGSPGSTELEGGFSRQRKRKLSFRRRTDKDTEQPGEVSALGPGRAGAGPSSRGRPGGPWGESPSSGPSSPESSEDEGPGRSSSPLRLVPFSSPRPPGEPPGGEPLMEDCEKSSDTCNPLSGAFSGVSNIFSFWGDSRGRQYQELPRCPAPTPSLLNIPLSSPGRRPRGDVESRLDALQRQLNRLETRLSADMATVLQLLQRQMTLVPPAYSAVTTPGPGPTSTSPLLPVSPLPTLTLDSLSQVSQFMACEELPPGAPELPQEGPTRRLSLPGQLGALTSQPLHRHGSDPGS
Cytochrome P450 2D6, sequence (P10635 whole entry): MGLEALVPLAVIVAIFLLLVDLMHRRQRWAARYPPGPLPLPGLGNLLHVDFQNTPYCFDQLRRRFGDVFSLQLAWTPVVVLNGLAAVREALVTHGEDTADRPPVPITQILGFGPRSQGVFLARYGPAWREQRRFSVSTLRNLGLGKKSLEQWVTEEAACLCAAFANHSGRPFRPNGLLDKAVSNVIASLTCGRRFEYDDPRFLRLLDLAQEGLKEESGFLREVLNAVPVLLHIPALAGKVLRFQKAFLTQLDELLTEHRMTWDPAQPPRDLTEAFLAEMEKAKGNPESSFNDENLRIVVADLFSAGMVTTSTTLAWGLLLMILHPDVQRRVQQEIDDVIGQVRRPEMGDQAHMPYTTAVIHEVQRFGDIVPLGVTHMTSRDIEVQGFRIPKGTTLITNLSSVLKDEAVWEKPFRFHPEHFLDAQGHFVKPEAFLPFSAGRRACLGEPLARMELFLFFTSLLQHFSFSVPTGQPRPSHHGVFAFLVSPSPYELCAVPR

| SMILES | EC50 [1] [µM] | EC50 [2] [µM] | EC50 [3] [µM] | CC50 [4] [µM] | EC50 [5] [µM] | EC50 [6] [µM] | IC50 [7] [µM] | EC50 [8] [µM] | IC50 [9] [µM] | selectivity ratio [10] | EC50 [11] [µM] | EC50 [12] [µM] | IC50 (Cytochrome P450 2D6) [µM] | EC50 [13] [µM] |
| --- | --- | --- | --- | --- | --- | --- | --- | --- | --- | --- | --- | --- | --- | --- |
| Cn1c(Cn2ccc(C(F)(F)F)c(Oc3cc(Cl)cc(C#N)c3)c2=O)n[nH]c1=O [DORAVIRINE] | 0.042 | 0.0066 | 0.025 | 293 | 17.4 | 0.0075 | 88 | 0.142 | 0.044 | 22600 | 0.5 | > 35 | – | – |
| COc1ccc2c(c1)[C@]13CCCC[C@@H]1[C@H](C2)N(C)CC3 [DEXTROMETHORPHAN] | – | – | – | – | – | – | – | – | – | – | – | – | 0.043 | – |
| Cc1ccccc1-c1ccc(Oc2c(C(F)(F)F)ccn(Cc3n[nH]c(=O)n3C)c2=O)cc1F | 7.78 | 5.3 | 5.54 | 33.8 | > 35 | 4.51 | – | 115 | 3.21 | 8.6 | 104 | > 35 | – | 3.93 |
| Cn1c(Cn2ccc(C(F)(F)F)c(Oc3ccc(-c4ccc(F)c(C#N)c4)c(F)c3)c2=O)n[nH]c1=O | 2.14 | 1.75 | 22.3 | 69.5 | 42.4 | 1.51 | – | 44.8 | 1.12 | 78.5 | 41.4 | > 35 | – | 0.89 |
| Cc1cccc(-c2ccc(Oc3c(C(F)(F)F)ccn(Cc4n[nH]c(=O)n4C)c3=O)cc2C)c1 | > 35 | 3.23 | 7.51 | 23.8 | > 35 | > 35 | – | > 35 | 6.54 | 5.43 | > 35 | > 35 | – | 4.38 |
| Cn1c(Cn2ccc(C(F)(F)F)c(Oc3ccc(-c4ccc(C#N)cc4)cc3Cl)c2=O)n[nH]c1=O | 6.35 | 4.55 | > 35 | 21.5 | > 35 | 6.18 | – | > 35 | 6.73 | 3.58 | > 35 | > 35 | – | 6.02 |
| Cc1cc(Oc2c(C(F)(F)F)ccn(Cc3n[nH]c(=O)n3C)c2=O)ccc1-c1cccc(C#N)c1 | 2.09 | 1.34 | 6.38 | 82.7 | > 35 | 1.01 | – | 33 | 1.53 | 118 | 38.8 | > 35 | – | 0.7 |
| Cc1cc(-c2cccc(C#N)c2)ccc1Oc1c(C(F)(F)F)ccn(Cc2n[nH]c(=O)n2C)c1=O | 1.04 | 1.38 | 4.75 | 27.2 | > 35 | 1.81 | – | 6.69 | 4.73 | 20.2 | > 35 | > 35 | – | 1.35 |
| Cn1c(Cn2ccc(C(F)(F)F)c(Oc3cc(C#N)cc(-c4ccc(F)cc4)c3)c2=O)n[nH]c1=O | 0.042 | 0.088 | 0.34 | > 267 | > 35 | 0.12 | – | 1.46 | 0.11 | > 4840 | 3.56 | > 35 | – | 0.053 |
| Cn1c(Cn2ccc(C(F)(F)F)c(Oc3cc(C#N)cc(-c4ccc(F)c(C#N)c4)c3)c2=O)n[nH]c1=O | 0.051 | 0.089 | 0.45 | 87.9 | > 35 | 0.077 | – | 1.01 | 0.29 | 2060 | 1.52 | > 35 | – | 0.043 |
| Cn1c(Cn2ccc(C(F)(F)F)c(Oc3ccc(-c4cc(F)cc(C#N)c4)cc3)c2=O)n[nH]c1=O | 15.5 | 9.01 | 42.2 | 90.5 | > 35 | 13.9 | – | > 35 | 8.1 | 5.95 | > 35 | > 35 | – | 15.2 |
| Cc1cc(-c2ccc(F)c(C#N)c2)ccc1Oc1c(C(F)(F)F)ccn(Cc2n[nH]c(=O)n2C)c1=O | 1.59 | 2.73 | 6.03 | 25 | > 35 | 2.31 | – | 8.59 | 5.49 | 13.7 | > 35 | > 35 | – | 1.83 |
| Cn1c(Cn2ccc(C(F)(F)F)c(Oc3ccc(-c4cccc(C#N)c4)cc3Cl)c2=O)n[nH]c1=O | 2.92 | 2.35 | > 35 | 22.9 | > 35 | 3.56 | – | > 35 | 7.21 | 5.62 | > 35 | > 35 | – | 4.07 |
| Cn1c(Cn2ccc(C(F)(F)F)c(Oc3ccc(-c4cccc(C#N)c4)cc3)c2=O)n[nH]c1=O | 14.3 | 10.8 | 39.1 | 114 | > 35 | 12.2 | – | > 35 | 14.4 | 23.7 | > 35 | > 35 | – | 4.79 |
| Cn1c(Cn2ccc(C(F)(F)F)c(Oc3ccc(-c4ccc(C#N)cc4)cc3)c2=O)n[nH]c1=O | 26.9 | 7.68 | 38.8 | 74.3 | > 35 | 23.7 | – | > 35 | 15.9 | 11.9 | > 35 | > 35 | – | 6.23 |
| Cc1cc(Oc2c(C(F)(F)F)ccn(Cc3n[nH]c(=O)n3C)c2=O)ccc1-c1cc(F)cc(C#N)c1 | 8.02 | 3.84 | > 35 | 45.6 | > 35 | 2.54 | – | > 35 | 3.67 | 29.4 | > 35 | > 35 | – | 1.55 |
